#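 The compound was tested at five concentrations on cells cultured in 96-well plates, with a 48-hour exposure period. GI50 = concentration required for 50% inhibition of growth. The concentration for full growth arrest is given as TGI.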
# System: NCI-H226 lung
# Assay: NCI anticancer screen, dose series, 48 h
SMILES,GI50 [nM],TGI [nM]
Nc1ccncc1/C=C1/C(=O)Nc2ccccc21,40500,> 100000
CC(=O)Oc1ccc(Nc2c3ccccc3nc3ccccc23)cc1,675,3080

# System: NCI-H23 lung
# Assay: NCI anticancer screen, dose series, 48 h
SMILES,GI50 [nM],TGI [nM]
CCCCCc1c(C)[nH]c(/C=C2\N=C(c3ccc[nH]3)C=C2CC)c1C,< 12.4,135
CC(=O)Oc1ccccc1C(=O)N=C1[Se]CCCN1C(=O)c1ccccc1OC(C)=O,2720,7780
Nc1ccncc1/C=C1/C(=O)Nc2ccccc21,31900,> 100000
CC(=O)Oc1ccc(Nc2c3ccccc3nc3ccccc23)cc1,1170,2980

# System: NCI-H460 lung
# Assay: NCI anticancer screen, dose series, 48 h
SMILES,GI50 [nM],TGI [nM]
CC(=O)Oc1ccccc1C(=O)N=C1[Se]CCCN1C(=O)c1ccccc1OC(C)=O,2000,5500
Nc1ccncc1/C=C1/C(=O)Nc2ccccc21,28400,> 100000
CC(=O)Oc1ccc(Nc2c3ccccc3nc3ccccc23)cc1,295,1300

# System: NCI-H522 lung
# Assay: NCI anticancer screen, dose series, 48 h
SMILES,GI50 [nM],TGI [nM]
CCCCCc1c(C)[nH]c(/C=C2\N=C(c3ccc[nH]3)C=C2CC)c1C,< 10,106
CC(=O)Oc1ccccc1C(=O)N=C1[Se]CCCN1C(=O)c1ccccc1OC(C)=O,1590,3420
Nc1ccncc1/C=C1/C(=O)Nc2ccccc21,24000,71600

# System: NCI/ADR-RES ovarian
# Assay: NCI anticancer screen, dose series, 48 h
SMILES,GI50 [nM],TGI [nM]
CCCCCc1c(C)[nH]c(/C=C2\N=C(c3ccc[nH]3)C=C2CC)c1C,13.9,124
CC(=O)Oc1ccccc1C(=O)N=C1[Se]CCCN1C(=O)c1ccccc1OC(C)=O,2920,8090
Nc1ccncc1/C=C1/C(=O)Nc2ccccc21,35900,> 100000
CC(=O)Oc1ccc(Nc2c3ccccc3nc3ccccc23)cc1,2250,12100

# System: OVCAR-3 ovarian
# Assay: NCI anticancer screen, dose series, 48 h
SMILES,GI50 [nM],TGI [nM]
CCCCCc1c(C)[nH]c(/C=C2\N=C(c3ccc[nH]3)C=C2CC)c1C,19.9,103
Nc1ccncc1/C=C1/C(=O)Nc2ccccc21,25400,76300
CC(=O)Oc1ccc(Nc2c3ccccc3nc3ccccc23)cc1,2140,6480

# System: OVCAR-4 ovarian
# Assay: NCI anticancer screen, dose series, 48 h
SMILES,GI50 [nM],TGI [nM]
CCCCCc1c(C)[nH]c(/C=C2\N=C(c3ccc[nH]3)C=C2CC)c1C,< 17.6,727
CC(=O)Oc1ccccc1C(=O)N=C1[Se]CCCN1C(=O)c1ccccc1OC(C)=O,1930,5570
Nc1ccncc1/C=C1/C(=O)Nc2ccccc21,33400,> 100000
CC(=O)Oc1ccc(Nc2c3ccccc3nc3ccccc23)cc1,1740,5930

# System: OVCAR-5 ovarian
# Assay: NCI anticancer screen, dose series, 48 h
SMILES,GI50 [nM],TGI [nM]
CCCCCc1c(C)[nH]c(/C=C2\N=C(c3ccc[nH]3)C=C2CC)c1C,17.9,785
CC(=O)Oc1ccccc1C(=O)N=C1[Se]CCCN1C(=O)c1ccccc1OC(C)=O,3250,8660
Nc1ccncc1/C=C1/C(=O)Nc2ccccc21,75300,> 100000
CC(=O)Oc1ccc(Nc2c3ccccc3nc3ccccc23)cc1,2080,6750

# System: OVCAR-8 ovarian
# Assay: NCI anticancer screen, dose series, 48 h
SMILES,GI50 [nM],TGI [nM]
Nc1ccncc1/C=C1/C(=O)Nc2ccccc21,62500,> 100000
CC(=O)Oc1ccc(Nc2c3ccccc3nc3ccccc23)cc1,1070,4140

# System: PC-3 prostate
# Assay: NCI anticancer screen, dose series, 48 h
SMILES,GI50 [nM],TGI [nM]
CCCCCc1c(C)[nH]c(/C=C2\N=C(c3ccc[nH]3)C=C2CC)c1C,< 11,1230
CC(=O)Oc1ccccc1C(=O)N=C1[Se]CCCN1C(=O)c1ccccc1OC(C)=O,2340,7240
Nc1ccncc1/C=C1/C(=O)Nc2ccccc21,41100,> 100000
CC(=O)Oc1ccc(Nc2c3ccccc3nc3ccccc23)cc1,2120,13300

# System: RPMI-8226 leukemia
# Assay: NCI anticancer screen, dose series, 48 h
SMILES,GI50 [nM],TGI [nM]
CCCCCc1c(C)[nH]c(/C=C2\N=C(c3ccc[nH]3)C=C2CC)c1C,< 10,96.2
CC(=O)Oc1ccccc1C(=O)N=C1[Se]CCCN1C(=O)c1ccccc1OC(C)=O,2420,6130
Nc1ccncc1/C=C1/C(=O)Nc2ccccc21,> 100000,> 100000
CC(=O)Oc1ccc(Nc2c3ccccc3nc3ccccc23)cc1,2250,23700

# System: RXF 393 renal
# Assay: NCI anticancer screen, dose series, 48 h
SMILES,GI50 [nM],TGI [nM]
CC(=O)Oc1ccccc1C(=O)N=C1[Se]CCCN1C(=O)c1ccccc1OC(C)=O,2480,6920
CC(=O)Oc1ccc(Nc2c3ccccc3nc3ccccc23)cc1,1080,2930

# System: SF-268 CNS
# Assay: NCI anticancer screen, dose series, 48 h
SMILES,GI50 [nM],TGI [nM]
CCCCCc1c(C)[nH]c(/C=C2\N=C(c3ccc[nH]3)C=C2CC)c1C,< 10,802
Nc1ccncc1/C=C1/C(=O)Nc2ccccc21,28000,> 100000
CC(=O)Oc1ccc(Nc2c3ccccc3nc3ccccc23)cc1,1860,12400

# System: SF-295 CNS
# Assay: NCI anticancer screen, dose series, 48 h
SMILES,GI50 [nM],TGI [nM]
CCCCCc1c(C)[nH]c(/C=C2\N=C(c3ccc[nH]3)C=C2CC)c1C,< 10,36.3
Nc1ccncc1/C=C1/C(=O)Nc2ccccc21,28200,79000
CC(=O)Oc1ccc(Nc2c3ccccc3nc3ccccc23)cc1,914,7940

# System: SF-539 CNS
# Assay: NCI anticancer screen, dose series, 48 h
SMILES,GI50 [nM],TGI [nM]
CCCCCc1c(C)[nH]c(/C=C2\N=C(c3ccc[nH]3)C=C2CC)c1C,15.3,172
CC(=O)Oc1ccccc1C(=O)N=C1[Se]CCCN1C(=O)c1ccccc1OC(C)=O,2660,6280
Nc1ccncc1/C=C1/C(=O)Nc2ccccc21,34600,> 100000
CC(=O)Oc1ccc(Nc2c3ccccc3nc3ccccc23)cc1,1630,6240

# System: SK-MEL-2 melanoma
# Assay: NCI anticancer screen, dose series, 48 h
SMILES,GI50 [nM],TGI [nM]
CCCCCc1c(C)[nH]c(/C=C2\N=C(c3ccc[nH]3)C=C2CC)c1C,< 10,25.7
CC(=O)Oc1ccccc1C(=O)N=C1[Se]CCCN1C(=O)c1ccccc1OC(C)=O,2380,5090
Nc1ccncc1/C=C1/C(=O)Nc2ccccc21,19400,87300
CC(=O)Oc1ccc(Nc2c3ccccc3nc3ccccc23)cc1,1800,3790

# System: SK-MEL-28 melanoma
# Assay: NCI anticancer screen, dose series, 48 h
SMILES,GI50 [nM],TGI [nM]
CCCCCc1c(C)[nH]c(/C=C2\N=C(c3ccc[nH]3)C=C2CC)c1C,29.6,144
CC(=O)Oc1ccccc1C(=O)N=C1[Se]CCCN1C(=O)c1ccccc1OC(C)=O,2360,5740
Nc1ccncc1/C=C1/C(=O)Nc2ccccc21,28900,> 100000
CC(=O)Oc1ccc(Nc2c3ccccc3nc3ccccc23)cc1,1580,3920

# System: SK-MEL-5 melanoma
# Assay: NCI anticancer screen, dose series, 48 h
SMILES,GI50 [nM],TGI [nM]
CCCCCc1c(C)[nH]c(/C=C2\N=C(c3ccc[nH]3)C=C2CC)c1C,14.1,27.8
CC(=O)Oc1ccccc1C(=O)N=C1[Se]CCCN1C(=O)c1ccccc1OC(C)=O,2010,4130
Nc1ccncc1/C=C1/C(=O)Nc2ccccc21,28000,> 100000
CC(=O)Oc1ccc(Nc2c3ccccc3nc3ccccc23)cc1,984,2150

# System: SK-OV-3 ovarian
# Assay: NCI anticancer screen, dose series, 48 h
SMILES,GI50 [nM],TGI [nM]
CCCCCc1c(C)[nH]c(/C=C2\N=C(c3ccc[nH]3)C=C2CC)c1C,60.9,383
CC(=O)Oc1ccccc1C(=O)N=C1[Se]CCCN1C(=O)c1ccccc1OC(C)=O,3400,6160
Nc1ccncc1/C=C1/C(=O)Nc2ccccc21,46700,> 100000
CC(=O)Oc1ccc(Nc2c3ccccc3nc3ccccc23)cc1,1470,5910

# System: SN12C renal
# Assay: NCI anticancer screen, dose series, 48 h
SMILES,GI50 [nM],TGI [nM]
CCCCCc1c(C)[nH]c(/C=C2\N=C(c3ccc[nH]3)C=C2CC)c1C,16.9,226
CC(=O)Oc1ccccc1C(=O)N=C1[Se]CCCN1C(=O)c1ccccc1OC(C)=O,4120,24700
Nc1ccncc1/C=C1/C(=O)Nc2ccccc21,18300,> 100000
CC(=O)Oc1ccc(Nc2c3ccccc3nc3ccccc23)cc1,1420,10300

# System: SNB-19 CNS
# Assay: NCI anticancer screen, dose series, 48 h
SMILES,GI50 [nM],TGI [nM]
CCCCCc1c(C)[nH]c(/C=C2\N=C(c3ccc[nH]3)C=C2CC)c1C,43.3,1460
Nc1ccncc1/C=C1/C(=O)Nc2ccccc21,36800,> 100000
CC(=O)Oc1ccc(Nc2c3ccccc3nc3ccccc23)cc1,1860,11900

# System: SNB-75 CNS
# Assay: NCI anticancer screen, dose series, 48 h
SMILES,GI50 [nM],TGI [nM]
CC(=O)Oc1ccccc1C(=O)N=C1[Se]CCCN1C(=O)c1ccccc1OC(C)=O,2010,4690
Nc1ccncc1/C=C1/C(=O)Nc2ccccc21,18500,63200
CC(=O)Oc1ccc(Nc2c3ccccc3nc3ccccc23)cc1,544,5080

# System: SR leukemia
# Assay: NCI anticancer screen, dose series, 48 h
SMILES,GI50 [nM],TGI [nM]
CC(=O)Oc1ccccc1C(=O)N=C1[Se]CCCN1C(=O)c1ccccc1OC(C)=O,2440,9170
Nc1ccncc1/C=C1/C(=O)Nc2ccccc21,23200,> 100000
CC(=O)Oc1ccc(Nc2c3ccccc3nc3ccccc23)cc1,355,> 100000

# System: SW-620 colon
# Assay: NCI anticancer screen, dose series, 48 h
SMILES,GI50 [nM],TGI [nM]
CCCCCc1c(C)[nH]c(/C=C2\N=C(c3ccc[nH]3)C=C2CC)c1C,< 10,170
CC(=O)Oc1ccccc1C(=O)N=C1[Se]CCCN1C(=O)c1ccccc1OC(C)=O,3580,11400
Nc1ccncc1/C=C1/C(=O)Nc2ccccc21,31400,> 100000
CC(=O)Oc1ccc(Nc2c3ccccc3nc3ccccc23)cc1,747,2580

# System: T-47D breast
# Assay: NCI anticancer screen, dose series, 48 h
SMILES,GI50 [nM],TGI [nM]
CCCCCc1c(C)[nH]c(/C=C2\N=C(c3ccc[nH]3)C=C2CC)c1C,18.7,149
CC(=O)Oc1ccccc1C(=O)N=C1[Se]CCCN1C(=O)c1ccccc1OC(C)=O,3440,13500
Nc1ccncc1/C=C1/C(=O)Nc2ccccc21,> 100000,> 100000
CC(=O)Oc1ccc(Nc2c3ccccc3nc3ccccc23)cc1,1720,7230

# System: TK-10 renal
# Assay: NCI anticancer screen, dose series, 48 h
SMILES,GI50 [nM],TGI [nM]
CCCCCc1c(C)[nH]c(/C=C2\N=C(c3ccc[nH]3)C=C2CC)c1C,< 15.5,166
CC(=O)Oc1ccccc1C(=O)N=C1[Se]CCCN1C(=O)c1ccccc1OC(C)=O,1870,3810
Nc1ccncc1/C=C1/C(=O)Nc2ccccc21,54700,> 100000
CC(=O)Oc1ccc(Nc2c3ccccc3nc3ccccc23)cc1,1680,6220

# System: U251 CNS
# Assay: NCI anticancer screen, dose series, 48 h
SMILES,GI50 [nM],TGI [nM]
CCCCCc1c(C)[nH]c(/C=C2\N=C(c3ccc[nH]3)C=C2CC)c1C,< 10,135
CC(=O)Oc1ccccc1C(=O)N=C1[Se]CCCN1C(=O)c1ccccc1OC(C)=O,1640,3000
Nc1ccncc1/C=C1/C(=O)Nc2ccccc21,47900,> 100000
CC(=O)Oc1ccc(Nc2c3ccccc3nc3ccccc23)cc1,1550,8850

# System: UACC-257 melanoma
# Assay: NCI anticancer screen, dose series, 48 h
SMILES,GI50 [nM],TGI [nM]
CCCCCc1c(C)[nH]c(/C=C2\N=C(c3ccc[nH]3)C=C2CC)c1C,28.6,167
Nc1ccncc1/C=C1/C(=O)Nc2ccccc21,> 100000,> 100000
CC(=O)Oc1ccc(Nc2c3ccccc3nc3ccccc23)cc1,1510,4310

# System: UACC-62 melanoma
# Assay: NCI anticancer screen, dose series, 48 h
SMILES,GI50 [nM],TGI [nM]
CCCCCc1c(C)[nH]c(/C=C2\N=C(c3ccc[nH]3)C=C2CC)c1C,15.8,43
Nc1ccncc1/C=C1/C(=O)Nc2ccccc21,32500,> 100000
CC(=O)Oc1ccc(Nc2c3ccccc3nc3ccccc23)cc1,1100,2610

# System: UO-31 renal
# Assay: NCI anticancer screen, dose series, 48 h
SMILES,GI50 [nM],TGI [nM]
CCCCCc1c(C)[nH]c(/C=C2\N=C(c3ccc[nH]3)C=C2CC)c1C,13.4,35.7
CC(=O)Oc1ccccc1C(=O)N=C1[Se]CCCN1C(=O)c1ccccc1OC(C)=O,1330,4250
Nc1ccncc1/C=C1/C(=O)Nc2ccccc21,18900,> 100000
CC(=O)Oc1ccc(Nc2c3ccccc3nc3ccccc23)cc1,693,2590
